Assay results reported in the supplement of paper PMC10307832.

Legend:
Experiment in all cases: relative viability (nuclei count vs DMSO), 5 days (fraction); higher = more cells survive
KN-93 + Pictilisib = compound: CN(C/C=C/C1=CC=C(C=C1)Cl)CC2=CC=CC=C2N(CCO)S(=O)(=O)C3=CC=C(C=C3)OC [KN-93] + CS(=O)(=O)N1CCN(Cc2cc3nc(-c4cccc5[nH]ncc45)nc(N4CCOCC4)c3s2)CC1 [Pictilisib] (partner 1 µM)
Method in brief: (§1)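 The day after seeding in 1536-well plates, lung cancer cell lines were treated by pin tool with a single drug, or with a fixed anchor-drug dose together with five library-drug doses (not always all listed) in √10 steps. After 5 days, a combined fix-and-stain solution (final 0.05% Triton X-100, 1% formaldehyde, 1 ug/ml Hoechst) was added. Nuclei counted on 4× images gave relative viability as treated counts over vehicle counts, reported as the median of duplicate plates.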

KN-93 + Phenformin = compound: CN(C/C=C/C1=CC=C(C=C1)Cl)CC2=CC=CC=C2N(CCO)S(=O)(=O)C3=CC=C(C=C3)OC [KN-93] + N=C(N)NC(=N)NCCc1ccccc1 [Phenformin] (partner 250 µM)
Method in brief: as §1

KN-93 + Crizotinib = compound: CN(C/C=C/C1=CC=C(C=C1)Cl)CC2=CC=CC=C2N(CCO)S(=O)(=O)C3=CC=C(C=C3)OC [KN-93] + C[C@@H](Oc1cc(-c2cnn(C3CCNCC3)c2)cnc1N)c1c(Cl)ccc(F)c1Cl [Crizotinib] (partner 1 µM)
Method in brief: as §1

KN-93 + Linsitinib = compound: CN(C/C=C/C1=CC=C(C=C1)Cl)CC2=CC=CC=C2N(CCO)S(=O)(=O)C3=CC=C(C=C3)OC [KN-93] + C[C@]1(O)C[C@@H](c2nc(-c3ccc4ccc(-c5ccccc5)nc4c3)c3c(N)nccn32)C1 [Linsitinib] (partner 1 µM)
Method in brief: as §1

KN-93 + Luminespib = compound: CN(C/C=C/C1=CC=C(C=C1)Cl)CC2=CC=CC=C2N(CCO)S(=O)(=O)C3=CC=C(C=C3)OC [KN-93] + CCNC(=O)c1noc(-c2cc(C(C)C)c(O)cc2O)c1-c1ccc(CN2CCOCC2)cc1 [Luminespib] (partner 0.01 µM)
Method in brief: as §1

Cell Line | relative viability (KN-93 + Pictilisib; first compound 0.253 µM) | relative viability (KN-93 + Pictilisib; first compound 2.53 µM) | relative viability (KN-93 + Pictilisib; first compound 8 µM) | relative viability (KN-93 + Phenformin; first compound 0.08 µM) | relative viability (KN-93 + Phenformin; first compound 0.253 µM) | relative viability (KN-93 + Phenformin; first compound 2.53 µM) | relative viability (KN-93 + Phenformin; first compound 8 µM) | relative viability (KN-93 + Crizotinib; first compound 0.08 µM) | relative viability (KN-93 + Crizotinib; first compound 0.253 µM) | relative viability (KN-93 + Crizotinib; first compound 2.53 µM) | relative viability (KN-93 + Crizotinib; first compound 8 µM) | relative viability (KN-93 + Linsitinib; first compound 0.08 µM) | relative viability (KN-93 + Linsitinib; first compound 0.253 µM) | relative viability (KN-93 + Linsitinib; first compound 2.53 µM) | relative viability (KN-93 + Linsitinib; first compound 8 µM) | relative viability (KN-93 + Luminespib; first compound 0.08 µM) | relative viability (KN-93 + Luminespib; first compound 0.253 µM) | relative viability (KN-93 + Luminespib; first compound 2.53 µM) | relative viability (KN-93 + Luminespib; first compound 8 µM) | relative viability (KN-93 + Pictilisib; first compound 0.08 µM)
SW 1573 | 0.446 | 0.493 | 0.199 | 0.319 | 0.389 | 0.454 | 0.275 | 0.766 | 0.926 | 0.822 | 0.33 | 0.906 | 0.884 | 0.714 | 0.349 | 0.178 | 0.303 | 0.187 | 0.144 | –
NCI-H596 | 0.361 | 0.381 | 0.368 | 0.728 | 0.95 | 0.69 | 0.45 | 0.906 | 1.09 | 1.03 | 0.691 | 1 | 1.19 | 1.03 | 0.89 | 0.924 | 1.34 | 1.21 | 0.789 | 0.419
NCI-H1793 | 0.334 | 0.382 | 0.267 | 0.372 | 0.36 | 0.367 | 0.2 | – | – | – | – | – | 1.18 | 0.925 | 0.673 | 0.193 | 0.179 | 0.195 | 0.166 | –
NCI-H2170 | 0.266 | 0.319 | 0.255 | 0.434 | 0.419 | 0.392 | 0.402 | 1.13 | 1.66 | 1.42 | 0.931 | – | – | – | – | 0.785 | 0.852 | 0.963 | 0.483 | 0.303
LK-2 | 0.679 | 0.725 | 0.314 | 0.505 | 0.398 | 0.341 | 0.233 | 0.214 | 0.199 | 0.216 | 0.27 | 0.605 | 0.609 | 0.634 | 0.479 | 0.225 | 0.176 | 0.212 | 0.174 | 0.683
HCC-366 | 0.0961 | 0.134 | 0.107 | 0.595 | 0.661 | 0.639 | 0.277 | – | 0.609 | 0.68 | 0.129 | – | 0.706 | 0.844 | 0.334 | – | – | – | – | 0.117
NCI-H661 | 0.417 | 0.336 | 0.253 | 0.307 | 0.273 | 0.26 | 0.294 | 0.855 | 0.875 | 0.988 | 0.761 | 0.502 | 0.531 | 0.433 | 0.562 | 0.896 | 1.06 | 0.851 | 0.542 | 0.396
NCI-H2085 | 0.452 | 0.518 | 0.414 | 0.698 | 0.796 | 0.815 | 0.655 | 0.815 | 1.17 | 0.921 | 0.565 | 0.782 | 0.967 | 0.929 | 0.633 | 0.441 | 0.371 | 0.441 | 0.356 | 0.438
NCI-H1437 | 0.379 | 0.394 | 0.301 | 0.396 | 0.292 | 0.352 | 0.31 | 0.851 | 1.27 | 0.894 | 0.47 | 0.879 | 1.41 | 1.04 | 0.487 | 0.999 | 1.3 | 0.907 | 0.559 | 0.416
HCC-44 | 0.569 | 0.503 | 0.398 | 0.314 | 0.202 | 0.331 | 0.16 | 0.732 | 0.785 | 0.858 | 0.502 | 0.616 | 0.613 | 0.667 | 0.462 | 1.28 | 1.01 | 1.12 | 0.752 | 0.728
NCI-H3122 | 0.708 | 0.639 | 0.627 | 0.384 | 0.381 | 0.901 | 0.326 | 0.287 | 0.31 | 0.299 | 0.264 | 1.08 | 0.803 | 1.23 | 0.882 | 0.0763 | 0.0918 | 0.0989 | 0.0487 | 0.622
NCI-H1395 | 0.682 | 1.02 | 0.477 | 0.477 | 0.449 | 0.48 | 0.449 | – | – | – | – | 1.66 | 1.13 | 1.07 | 0.427 | 0.631 | 0.619 | 0.664 | 0.604 | 0.654
ChaGo-K-1 | 0.851 | 0.718 | 0.454 | 0.456 | 0.56 | 0.466 | 0.453 | 1.12 | 1.23 | 1.11 | 0.722 | – | – | – | – | 0.589 | 0.712 | 0.699 | 0.462 | 1.27
NCI-H1734 | 0.548 | 0.492 | 0.29 | 0.363 | 0.446 | 0.381 | 0.411 | 0.646 | 0.752 | 0.74 | 0.421 | 0.855 | 0.949 | 1.03 | 0.734 | 0.167 | 0.17 | 0.181 | 0.179 | 0.534
NCI-H460 | 0.329 | 0.465 | 0.117 | 0.299 | 0.565 | 0.552 | 0.396 | 0.387 | 0.985 | 1.33 | 0.449 | 0.466 | 1.14 | 0.805 | 0.375 | 0.0407 | 0.0268 | 0.0273 | 0.0309 | 0.301
NCI-H2087 | 0.967 | 0.898 | 0.466 | 0.427 | 0.648 | 0.57 | 0.442 | 0.678 | 1.01 | 0.84 | 0.55 | 0.941 | 0.905 | 0.824 | 0.43 | 0.16 | 0.182 | 0.184 | 0.133 | 0.839
